Test results as given in the NIST ThermoML archive (doi:10.1016/j.jct.2006.07.004).
Numbers after ± are expanded uncertainties.

Experiments:
[1] = Liquid; for viscosity / mass density: 101 kPa; for viscosity: Capillary tube (Ostwald / Ubbelohde) method; for mass density: Vibrating tube method
[2] = xn = mol fraction of the nth substance listed; details: 101 kPa, Liquid, x2 = 0; for viscosity: Capillary tube (Ostwald / Ubbelohde) method; for mass density: Vibrating tube method

| Compound | viscosity ([1]; 283.15 K) | mass density ([1]; 283.15 K) | viscosity ([1]; 293.15 K) | mass density ([1]; 293.15 K) | viscosity ([1]; 303.15 K) | mass density ([1]; 303.15 K) | vapor or sublimation pressure ([1]; 303.15 K) | viscosity ([1]; 313.15 K) | mass density ([1]; 313.15 K) | viscosity ([2]; 283.15 K) | mass density ([2]; 283.15 K) | viscosity ([2]; 293.15 K) | mass density ([2]; 293.15 K) | viscosity ([2]; 303.15 K) | mass density ([2]; 303.15 K) | viscosity ([2]; 313.15 K) | mass density ([2]; 313.15 K) |
| --- | --- | --- | --- | --- | --- | --- | --- | --- | --- | --- | --- | --- | --- | --- | --- | --- | --- |
| ClC(Cl)Cl [trichloromethane] | 0.629 ± 0.005 mPa·s | 1507.3 ± 0.7 kg/m3 | 0.573 ± 0.005 mPa·s | 1488.4 ± 0.7 kg/m3 | 0.516 ± 0.005 mPa·s | 1469.4 ± 0.6 kg/m3 | 32.19 ± 0.33 kPa | 0.468 ± 0.004 mPa·s | 1450 ± 0.6 kg/m3 | – | – | – | – | – | – | – | – |
| CC(=O)CC(C)C [4-methylpentan-2-one] + ClC(Cl)Cl | – | – | – | – | – | – | – | – | – | 0.655 ± 0.006 mPa·s | 809.8 ± 0.3 kg/m3 | 0.576 ± 0.005 mPa·s | 800.7 ± 0.3 kg/m3 | 0.511 ± 0.005 mPa·s | 791.6 ± 0.3 kg/m3 | 0.46 ± 0.004 mPa·s | 782.2 ± 0.3 kg/m3 |
| CC(=O)CC(C)C [4-methylpentan-2-one] | 0.655 ± 0.006 mPa·s | 809.8 ± 0.3 kg/m3 | 0.576 ± 0.005 mPa·s | 800.7 ± 0.3 kg/m3 | 0.511 ± 0.005 mPa·s | 791.6 ± 0.3 kg/m3 | 3.89 ± 0.11 kPa | 0.46 ± 0.004 mPa·s | 782.2 ± 0.3 kg/m3 | – | – | – | – | – | – | – | – |
